Source: article PMC8695447, “Novel Small Molecules Capable of Blocking mtRAS-Signaling Pathway” (Frontiers in Oncology, 2021)

Legend:
Assay type in all cases: cell-based
[1] = tested on: Ba/F3-NRAS-G12D and Ba/F3-NRAS-G12V cells; test: Flow cytometry apoptosis analysis (annexin V/PI), Ba/F3 mtRAS cells; conditions: 1 μM, 24 h
Protocol: For apoptosis analysis, cells (1 × 10^6 cells per sample) were incubated with each compounds for 24 h. Cells were subjected to brief ice-cold PBS washing and subjected to staining with Alexafluor488-conjugated annexin V (Thermo Fisher, A13201), and propidium iodide (PI, Thermo Fisher, P3560). Thereafter, apoptotic cells were classified by FACS Accuri™ C6 Plus (BD Biosciences). Debris and unstained cells and were excluded by gating.
Figure 3 (A, B) The effects of SIJ1795 and SIJ1772 on apoptosis induction in Ba/F3 cells transformed with mtRAS (NRAS-G12D and NRAS-G12V). Cells were treated with 0.1 and 1 μM of SIJ1795, SIJ1772, and GNF-7 for 24 h Western blot analysis was conducted to evaluate the cleaved PARP and level. GAPDH was used as a loading control. (C) Apoptotic cell population (annexin V-positive) was determined by flow cytometry analysis (n = 3). Cells were treated with 1 μM of indicated compounds for 24 h. Statistical significance was calculated by a one-way ANOVA analysis (**p < 0.01, ***p < 0.001).

DU-145 (KRAS-G12V) = test: Anti-proliferation assay on DU-145; conditions: Homo sapiens, DU-145; 72 h treatment; average with SD (n = 3, duplicate)
Protocol: (§1) Ba/F3-parental, OCI-AML3, U397 cells were purchased from DSMZ. MDA-MB-231, HCT-116, AsPC-1, H358, HT-29, SW480, and DU-145 cells were obtained from KCLB. MDA-MB-468 cells were obtained from ATCC. All cells were maintained in RPMI with 10% FBS and antibiotics. Cells were grown in a humidified 5% CO2 incubator at 37°C. Ba/F3-parental cells were grown in the presence of 10 ng/ml IL-3. NRAS-G12D or NRAS-G12V transformed Ba/F3 cell lines (Ba/F3-NRAS-G12D, and Ba/F3-NRAS-G12V, respectively) were cultured without IL-3, which were established by the procedure described as previously ([30]).
(§2) Approximately 3.0 × 10^3 cells/well were seeded in a 96-well cell culture plate. After stabilization, 1/3 serially diluted compound in DMSO was treated to the cell. […] All GI50 values were obtained in duplicate with three independent assays and averages with standard deviation are presented.

[2] = tested on: MDA-MB-468 (KRAS, NRAS-wt); test: Anti-proliferation assay on MDA-MB-468; conditions: for GI50: Homo sapiens, MDA-MB-468, 72 h treatment, average with SD (n = 3, duplicate); for antiproliferative activity fold lower on MDA-MB-468 cells than on HCT-116 harboring KRAS-G13D mutation: MDA-MB-468 versus HCT-116; for times less active on MDA-MB-468 cells harboring wtRAS than on SW480 cells with KRAS-G12V mutation: MDA-MB-468 versus SW480
Protocol: as §1, §2

[3] = tested on: Ba/F3 cells transformed with mtRAS (NRAS-G12D and NRAS-G12V) and cancer cells harboring mtRAS; test: Flow cytometry cell cycle analysis (PI); conditions: 1 μM, 24 h
Protocol: For cell cycle analysis, cells (1 × 10^6 cells per sample) were incubated with each compounds for 24 h. Cells were subjected to brief ice-cold PBS washing and fixed with 70% EtOH for 1 h at −20°C. Cells were stained with PI/RNase staining solution (Cell signaling, #4087) and incubated 30 min at room temperature in a dark condition. Stained cells were subjected to flow cytometry analysis. Debris and unstained cells and were excluded by gating.
Figure 5 The effects of SIJ1795 and SIJ1772 on cell cycle arrest against in (A, B) Ba/F3 cells transformed with mtRAS (NRAS-G12D and NRAS-G12V) and (C, D) cancer cells harboring mtRAS. Cells were treated with 1 µM of SIJ1795, SIJ1772, and GNF-7 for 24 h. Cells were stained by PI and analyzed the percentage of cell cycle phase by flow cytometry.

GI50 (DU-145 (KRAS-G12V)) [µM] | GI50 [2] [µM] | SMILES | apoptotic cells population (annexin V/PI) in Ba/F3-NRAS-G12D and Ba/F3-NRAS-G12V cells [1] | antiproliferative activity fold lower on MDA-MB-468 cells than on HCT-116 harboring KRAS-G13D mutation [2] [fold] | times less active on MDA-MB-468 cells harboring wtRAS than on SW480 cells with KRAS-G12V mutation [2] [times] | cell cycle arrest [3]
0.029 ± 0.003 | 44.9 ± 6.25 | Cc1ccc(NC(=O)c2cccc(C(F)(F)F)c2)cc1N1Cc2cnc(Nc3cnn(C4CCN(S(C)(=O)=O)CC4)c3)nc2N(C)C1=O [SIJ1772, N-(4-Methyl-3-(1-methyl-7-((1-(1-(methylsulfonyl)piperidin-4-yl)-1H-pyrazol-4-yl)amino)-2-oxo-1,4-dihydropyrimido[4,5-d]pyrimidin-3(2H)-yl)phenyl)-3-(trifluoromethyl)benzamide] | increase of apoptotic cells | 1182 | 101 | G0/G1 arrest was induced
0.077 ± 0.043 | 15.7 ± 5.31 | CCN1CCN(c2cccc(Nc3ncc4c(n3)N(C)C(=O)N(c3cc(NC(=O)c5cccc(C(F)(F)F)c5)ccc3C)C4)c2)CC1 [SIJ1795, N-(3-(7-((3-(4-Ethylpiperazin-1-yl)phenyl)amino)-1-methyl-2-oxo-1,4-dihydropyrimido[4,5-d]pyrimidin-3(2H)-yl)-4-methylphenyl)-3-(trifluoromethyl)benzamide] | increase of apoptotic cells | 476 | 64 | G0/G1 arrest was induced
